Measurements as given in patent publication US20150252048A1, “SUBSTITUTED N-(3-PYRIMIDIN-4-YL)PHENYL)ACRYLAMIDE ANALOGS AS TYROSINE RECEPTOR KINASE BTK INHIBITORS” (UNIVERSITY OF UTAH RESEARCH FOUNDATION, priority 2012, published 2015).
Read-outs that look alike come from different tables or passages of the source.

Columns and labels:
[1] = Microsomal stability; assay type: in vitro ADME, human; settings: for Compound Remaining: human microsomes 0.5 mg protein/mL, 1 μM
Protocol: (§1) Data were also obtained for the stability of Compound 3 when incubated with a microsomal preparation. Drug metabolism can occur, at least in part, in cellular microsomes, and thus the assay assesses the stability of drug to metabolic modification. The concentration of compound 3 was 1 μM in the assay system and the indicated microsomes were present at 0.5 mg total protein per milliliter. The concentration of intact drug was determined at the indicated timepoints using a LC-MS/MS assay. The enzyme activity of the microsomes used in this study were assessed using a positive control, testosterone.

[2] = molecular target: BTK (Homo sapiens, UniProt Q06187); assay: Specific kinase IC50 assay; assay type: biochemical; settings: 1 μM ATP, 10-dose, duplicate
Sequence of BTK (Q06187 whole entry): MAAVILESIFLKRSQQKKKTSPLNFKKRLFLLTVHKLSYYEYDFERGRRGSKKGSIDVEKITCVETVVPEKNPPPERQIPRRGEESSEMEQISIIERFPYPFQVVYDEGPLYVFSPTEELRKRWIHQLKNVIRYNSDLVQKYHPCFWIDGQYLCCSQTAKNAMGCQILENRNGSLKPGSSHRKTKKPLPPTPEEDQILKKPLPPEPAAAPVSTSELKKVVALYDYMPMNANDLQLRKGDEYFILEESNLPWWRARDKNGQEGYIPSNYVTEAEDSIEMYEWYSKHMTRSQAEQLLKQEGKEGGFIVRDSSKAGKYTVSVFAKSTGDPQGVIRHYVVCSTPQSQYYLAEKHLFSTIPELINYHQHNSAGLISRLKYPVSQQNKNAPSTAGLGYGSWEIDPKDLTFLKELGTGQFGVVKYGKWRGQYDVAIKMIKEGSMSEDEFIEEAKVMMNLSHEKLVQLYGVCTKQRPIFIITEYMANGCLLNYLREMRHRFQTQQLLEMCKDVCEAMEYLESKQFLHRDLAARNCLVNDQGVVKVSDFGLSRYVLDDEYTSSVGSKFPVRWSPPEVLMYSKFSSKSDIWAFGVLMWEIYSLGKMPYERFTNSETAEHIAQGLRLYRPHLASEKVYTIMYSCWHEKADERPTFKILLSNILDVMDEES
Protocol: In addition, the compound IC50 was determined in six specific kinase assays. The kinases that the compound was assayed against were as follows: BMX/ETK, BTK, EGFR (T790M), ERBB4/HER4, JAK3, and TEC. The assays were carried out in the presence of 1 μM ATP and were conducted in a 10-dose format in duplicate with three-fold serial dilutions starting at 10 μM. The calculated IC50s are shown in Table IX, and representative dose response curves from these assays are shown in FIG. 5 (Panels A: BMX/ETK kinase assay; Panel B: BTK kinase assay; Panel C: EGFR (T790M) kinase assay; Panel D: ERBB4/HER4 kinase assay; Panel E: JAK3 kinase assay; and Panel F: TEC kinase assay). The data in Figure show the individual assay duplicate assay results a line fit to the data; 100% activity is the activity in the […] of test compound. […].

[3] = Microsomal stability; assay type: in vitro ADME, mouse; settings: for Compound Remaining: mouse microsomes 0.5 mg protein/mL, 1 μM; for half-life at 1 μM: mouse, microsomes
Protocol: as §1

[4] = Glutathione (GSH) trapping assay; assay type: in vitro ADME; settings: peak area vs intact compound 3 at time zero, 1 mg/mL human liver microsomal protein
Text: Drug metabolism in vivo can lead to reactive intermediates that form covalent adducts with cellular materials. Such covalent binding of reactive metabolites is potentially involved in severe adverse drug reactions. However, the covalent binding assay is of low throughput and costly, a qualitative trapping assay measuring trapping of drug glutathione conjugates in human liver microsomes can provide information on the propensity of a drug candidate to be involved in covalent binding reactions. A glutathione (GSH) trapping assay was carried out on representative disclosed compound, compound 3, and the results are shown in Table VIII. […] The assay was carried out with 1 mg total human liver microsomal protein per milliliter.

[5] = Pharmacokinetics in rat; assay type: in vivo, male Sprague Dawley rats
Protocol: The pharmacokinetic behavior of a representative disclosed compound, compound 3 (N-(3-(6-((3-morpholinophenyl)amino)-1H-pyrazolo[3,4-d]pyrimidin-4-yl)phenyl)acrylamide), which corresponds to compound 3 in Table I, was also evaluated in rat. A study was conducted using three male Sprague Dawley rats in each group as shown below:
The solution formulations were prepared as follows: (A) intravenous route (“i.v.”): a weighed quantity of 3 (10.45 mg) was transferred into a 10 mL clean glass vial. To this 0.231 mL of ethanol (4.5%) was added, vortexed and sonicated. To this 1.028 mL of propylene glycol (20%) was added, vortexed and sonicated. 1.543 mL of PEG400 (30%) was added, vortexed and sonicated. Finally 2.340 mL of water (45.5%) was added gradually, vortexed and sonicated to make a solution of 2 mg/mL concentration. The final solution was filtered using syringe filter (0.22 μm).; and (B) a weighed quantity of SC-1344 (27.43 mg) was transferred into a 10 mL clean glass vial. To this 0.304 mL of ethanol (4.5%) was added, vortexed and sonicated. To this 1.350 mL of propylene glycol (20%) was added, vortexed and sonicated. 2.024 mL of PEG400 (30%) was added, vortexed and sonicated. Finally 3.070 mL of water (45.5%) was added gradually, vortexed and sonicated to make a solution of 4 mg/mL concentration. The final solution was filtered using syringe filter (0.22 μm).
Bioanalysis was performed using fit-for-purpose LC-MS/MS method for the quantification of 3 in rat plasma samples. The calibration curve (CC) for the method consisted of nine non-zero calibration standards along with a double blank and zero standard samples. Study samples were analyzed along with two sets of quality control samples (6 QC samples; low, medium and high QC samples in triplicate). Briefly, the LC-MS/MS method used the following parameters: a) gradient mobile phase (Pump A: 0.1% Formic acid in water; Pump B: 100% methanol); b) XBridge C8, 50×4.6 mm, 3.5μ (Waters) column; c) 10 μL injection volume; d) 1.00 mL/min flow rate; e) 3.50 min run time; f) 10° C. sample cooler temperature; and g) 40° C. column oven temperature. The sample calibration curve was 1.02-1023 ng/mL, with an internal standard (telmisartan) at 0.2 μg/mL. Briefly, biological samples were prepared as follows: 50 μL of sample was mixed with 150 μL of internal standard, then mixture was vortexed for 5 min at 800 rpm, followed by centrifugation at 4000 rpm for 5 min; 150 μL of the sample supernatant was transferred into a separate tube and diluted with 75 μL of methanol: water (1:1), followed by injection into LC/MS/MS.
Plasma pharmacokinetic parameters were calculated using the non-compartmental analysis tool of Phoenix software (Version 6.3) and were determined from individual animals in each group. The area under the plasma concentration-time curve (AUC0-t and AUCinf), elimination half-life (T1/2), clearance (CL), volume of distribution (Vss) and Mean residence time (MRT) were calculated from intravenous group. The peak plasma concentration (Cmax), time to achieve peak plasma concentration (Tmax), AUC0-t and AUCinf, and absolute oral bioavailability (F) were calculated from the oral group.
The mean plasma concentration-time profiles are shown in FIGS. 10 and 11, i.e. the mean concentration values of the individual values obtained from each rat in the study group at the indicated time points.

C=CC(=O)Nc1cccc(-c2nc(Nc3cccc(N4CCOCC4)c3)nc3[nH]ncc23)c1 [Compound 3, N-(3-(6-((3-morpholinophenyl)amino)-1H-pyrazolo[3,4-d]pyrimidin-4-yl)phenyl)acrylamide]
half-life at 1 μM ([1]; human microsomes): 16 min | Compound Remaining ([1]; 0 min): 100 % of initial amount | Compound Remaining ([1]; 10 min): 61.1 % of initial amount | Compound Remaining ([1]; 20 min): 36.0 % of initial amount | Compound Remaining ([1]; 30 min): 20.4 % of initial amount | Compound Remaining ([1]; 60 min): 7.89 % of initial amount | microsomal CLint at 1 μM ([1]; human microsomes, read-out: CLinit (intrinsic clearance)): 85 µL/min/mg | IC50 [2]: 12.3 nM | Compound Remaining ([3]; 0 min): 100 % of initial amount | Compound Remaining ([3]; 10 min): 24.3 % of initial amount | Compound Remaining ([3]; 20 min): 6.12 % of initial amount | Compound Remaining ([3]; 30 min): 1.62 % of initial amount | Compound Remaining ([3]; 60 min): 0.72 % of initial amount | microsomal CLint at 1 μM ([3]; mouse microsomes, read-out: CLinit (intrinsic clearance)): 160 µL/min/mg | half-life at 1 μM ([3]; mouse microsomes, expressed as < shortest incubation time, read-out: t1/2): < 10 min | half-life at 1 μM ([3]; mouse microsomes, read-out: t1/2, calculated half-life in parentheses): 8.6 min | % Compared to Parent Compound, 0 min ([4]; 0 min): 100% | % Compared to Parent Compound, 60 min ([4]; 60 min): 47% | AUC(0-t) ([5]; IV 5 mg/kg, solution, 5 mg/kg): 1063 ng·h/mL | CL ([5]; IV 5 mg/kg, solution, 5 mg/kg): 79.7 mL/min/kg | T1/2 ([5]; IV 5 mg/kg, solution, 5 mg/kg): 163 min | Vss ([5]; IV 5 mg/kg, solution, 5 mg/kg): 7.91 L/kg | F (absolute oral bioavailability) ([5]; PO 20 mg/kg vs IV 5 mg/kg, AUC0-t and nominal doses used): 2.44% | Cmax ([5]; PO 20 mg/kg, solution, 20 mg/kg): 23.1 ng/mL | AUC(0-inf) ([5]; male, Sprague Dawley, plasma, IV 5 mg/kg, solution): 1070 ng·h/mL | Cmax ([5]; male, Sprague Dawley, plasma, IV 5 mg/kg, solution, read-out: Cmax (back-extrapolated concentration)): 1840 ng/mL | AUC(0-inf) ([5]; male, Sprague Dawley, plasma, PO 20 mg/kg, solution, one animal data): 254 ng·h/mL | Tmax ([5]; male, Sprague Dawley, plasma, PO 20 mg/kg, solution, read-out: Tmax (median)): 120 min | AUC(0-t) ([5]; male, Sprague-Dawley, plasma, PO 20 mg/kg, solution, read-out: AUC0-t): 104 ng·h/mL
